{
  "source": "patent US9771370B2",
  "about": "“Compounds for the inhibition of indoleamine-2,3-dioxygenase” (Merck Patent GmbH, priority 2014, dated 2017)",
  "biological_target": "Recombinant human IDO (Homo sapiens, UniProt P14902)",
  "sequence (P14902 whole entry)": "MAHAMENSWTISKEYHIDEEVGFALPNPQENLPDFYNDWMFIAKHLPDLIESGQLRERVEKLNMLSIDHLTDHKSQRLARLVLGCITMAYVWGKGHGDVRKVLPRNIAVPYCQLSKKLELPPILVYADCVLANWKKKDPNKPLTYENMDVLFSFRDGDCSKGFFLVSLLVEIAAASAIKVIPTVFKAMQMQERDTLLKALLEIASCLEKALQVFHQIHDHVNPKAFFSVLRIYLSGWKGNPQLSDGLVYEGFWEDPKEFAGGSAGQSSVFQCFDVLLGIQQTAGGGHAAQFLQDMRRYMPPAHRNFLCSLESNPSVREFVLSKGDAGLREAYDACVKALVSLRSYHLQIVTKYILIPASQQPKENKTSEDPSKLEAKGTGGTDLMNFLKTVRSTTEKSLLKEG",
  "test": "Bridge-IT tryptophan fluorescence assay of human IDO-1 inhibition",
  "assay_type": "biochemical",
  "settings": "recombinant human IDO 7.5 nM, L-tryptophan",
  "how_it_was_run": "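Two protocol variants: 100 μM L-Trp for 90 min at 37 °C, or 30 min enzyme–compound pre-incubation at 25 °C, then 50 μM L-Trp for 60 min at 25 °C. Reaction stopped in Bridge-IT solution A for 30 min at 30 °C.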",
  "data": [
    {"compound": "FC1(CCC2c3ccccc3-c3cncn32)CCOCC1", "note": "(single isomer, unassigned) [Compound 94b, 5-[2-(4-fluorooxan-4-yl)ethyl]-5H-imidazo[4,3-a]isoindole]", "values": [
      {"measurement": "IC50", "result": "< 0.1", "unit": "µM"}
    ]},
    {"compound": "Fc1cccc2c1C(CCC1(F)CCOCC1)n1cncc1-2", "note": "(single isomer, unassigned) [Compound 95a, 6-fluoro-5-[2-(4-fluorooxan-4-yl)ethyl]-5H-imidazo[4,3-a]isoindole]", "values": [
      {"measurement": "IC50", "result": "> 1", "unit": "µM"}
    ]},
    {"compound": "Fc1cccc2c1C(CCC1(F)CCOCC1)n1cncc1-2", "note": "(single isomer, unassigned) [Compound 95b, 6-fluoro-5-[2-(4-fluorooxan-4-yl)ethyl]-5H-imidazo[4,3-a]isoindole]", "values": [
      {"measurement": "IC50", "result": "0.1 to 1", "unit": "µM"}
    ]},
    {"compound": "FC1(CCC2c3c(Cl)cccc3-c3cncn32)CCOCC1", "note": "(single isomer, unassigned) [Compound 96a, 6-chloro-5-[2-(4-fluorooxan-4-yl)ethyl]-5H-imidazo[4,3-a]isoindole]", "values": [
      {"measurement": "IC50", "result": "> 1", "unit": "µM"}
    ]},
    {"compound": "FC1(CCC2c3c(Cl)cccc3-c3cncn32)CCOCC1", "note": "(single isomer, unassigned) [Compound 96b, 6-chloro-5-[2-(4-fluorooxan-4-yl)ethyl]-5H-imidazo[4,3-a]isoindole]", "values": [
      {"measurement": "IC50", "result": "0.1 to 1", "unit": "µM"}
    ]},
    {"compound": "FC(CC1c2ncccc2-c2cncn21)C1CCCCC1", "note": "(single isomer, unassigned) [Compound 97a, 7-[2-cyclohexyl-2-fluoroethyl]-4,6,9-triazatricyclo[6.4.0.0^[2,6]]dodeca-1(8),2,4,9,11-pentaene]", "values": [
      {"measurement": "IC50", "result": "> 1", "unit": "µM"}
    ]},
    {"compound": "FC(CC1c2ncccc2-c2cncn21)C1CCCCC1", "note": "(single isomer, unassigned) [Compound 97b, 7-[2-cyclohexyl-2-fluoroethyl]-4,6,9-triazatricyclo[6.4.0.0^[2,6]]dodeca-1(8),2,4,9,11-pentaene]", "values": [
      {"measurement": "IC50", "result": "0.1 to 1", "unit": "µM"}
    ]},
    {"compound": "FC(CC1c2ncccc2-c2cncn21)C1CCCCC1", "note": "(single isomer, unassigned) [Compound 97c, 7-[2-cyclohexyl-2-fluoroethyl]-4,6,9-triazatricyclo[6.4.0.0^[2,6]]dodeca-1(8),2,4,9,11-pentaene]", "values": [
      {"measurement": "IC50", "result": "0.1 to 1", "unit": "µM"}
    ]},
    {"compound": "FC(CC1c2ncccc2-c2cncn21)C1CCCCC1", "note": "(single isomer, unassigned) [Compound 97d, 7-[2-cyclohexyl-2-fluoroethyl]-4,6,9-triazatricyclo[6.4.0.0^[2,6]]dodeca-1(8),2,4,9,11-pentaene]", "values": [
      {"measurement": "IC50", "result": "> 1", "unit": "µM"}
    ]},
    {"compound": "Fc1cccc2c1C(CC(F)C1CCCCC1)n1cncc1-2", "note": "(single isomer, unassigned) [Compound 98a, 5-[2-cyclohexyl-2-fluoroethyl]-6-fluoro-5H-imidazo[4,3-a]isoindole]", "values": [
      {"measurement": "IC50", "result": "0.1 to 1", "unit": "µM"}
    ]},
    {"compound": "Fc1cccc2c1C(CC(F)C1CCCCC1)n1cncc1-2", "note": "(single isomer, unassigned) [Compound 98b, 5-[2-cyclohexyl-2-fluoroethyl]-6-fluoro-5H-imidazo[4,3-a]isoindole]", "values": [
      {"measurement": "IC50", "result": "< 0.1", "unit": "µM"}
    ]},
    {"compound": "NC(=O)C1CCC(F)(CCC2c3c(Cl)cccc3-c3cncn32)CC1", "note": "(single isomer, unassigned) [Compound 99a, 4-[2-[6-chloro-5H-imidazo[4,3-a]isoindol-5-yl]ethyl]-4-fluorocyclohexane-1-carboxamide]", "values": [
      {"measurement": "IC50", "result": "> 1", "unit": "µM"}
    ]},
    {"compound": "NC(=O)C1CCC(F)(CCC2c3c(Cl)cccc3-c3cncn32)CC1", "note": "(single isomer, unassigned) [Compound 99b, 4-[2-[6-chloro-5H-imidazo[4,3-a]isoindol-5-yl]ethyl]-4-fluorocyclohexane-1-carboxamide]", "values": [
      {"measurement": "IC50", "result": "0.1 to 1", "unit": "µM"}
    ]},
    {"compound": "NC(=O)C1CCC(F)(CCC2c3c(Cl)cccc3-c3cncn32)CC1", "note": "(single isomer, unassigned) [Compound 99c, 4-[2-[6-chloro-5H-imidazo[4,3-a]isoindol-5-yl]ethyl]-4-fluorocyclohexane-1-carboxamide]", "values": [
      {"measurement": "IC50", "result": "< 0.1", "unit": "µM"}
    ]},
    {"compound": "NC(=O)C1CCC(F)(CCC2c3c(Cl)cccc3-c3cncn32)CC1", "note": "(single isomer, unassigned) [Compound 99d, 4-[2-[6-chloro-5H-imidazo[4,3-a]isoindol-5-yl]ethyl]-4-fluorocyclohexane-1-carboxamide]", "values": [
      {"measurement": "IC50", "result": "> 1", "unit": "µM"}
    ]},
    {"compound": "OC(CC1c2nccc(F)c2-c2cncn21)C1CCCCC1", "note": "(single isomer, unassigned) [Compound 101a, 1-cyclohexyl-2-[12-fluoro-4,6,9-triazatricyclo[6.4.0.0^[2,6]]dodeca-1(8),2,4,9,11-pentaen-7-yl]ethan-1-ol]", "values": [
      {"measurement": "IC50", "result": "> 1", "unit": "µM"}
    ]},
    {"compound": "OC(CC1c2nccc(F)c2-c2cncn21)C1CCCCC1", "note": "(single isomer, unassigned) [Compound 101b, 1-cyclohexyl-2-[12-fluoro-4,6,9-triazatricyclo[6.4.0.0^[2,6]]dodeca-1(8),2,4,9,11-pentaen-7-yl]ethan-1-ol]", "values": [
      {"measurement": "IC50", "result": "> 1", "unit": "µM"}
    ]},
    {"compound": "OC(CC1c2nccc(F)c2-c2cncn21)C1CCCCC1", "note": "(single isomer, unassigned) [Compound 101c, 1-cyclohexyl-2-[12-fluoro-4,6,9-triazatricyclo[6.4.0.0^[2,6]]dodeca-1(8),2,4,9,11-pentaen-7-yl]ethan-1-ol]", "values": [
      {"measurement": "IC50", "result": "> 1", "unit": "µM"}
    ]},
    {"compound": "OC(CC1c2nccc(F)c2-c2cncn21)C1CCCCC1", "note": "(single isomer, unassigned) [Compound 101d, 1-cyclohexyl-2-[12-fluoro-4,6,9-triazatricyclo[6.4.0.0^[2,6]]dodeca-1(8),2,4,9,11-pentaen-7-yl]ethan-1-ol]", "values": [
      {"measurement": "IC50", "result": "> 1", "unit": "µM"}
    ]},
    {"compound": "Fc1ccnc2c1-c1cncn1C2CCC1(F)CCCCC1", "note": "(single isomer, unassigned) [Compound 102a, 12-fluoro-7-[2-(1-fluorocyclohexyl)ethyl]-4,6,9-triazatricyclo[6.4.0.0^[2,6]]dodeca-1(8),2,4,9,11-pentaene]", "values": [
      {"measurement": "IC50", "result": "> 1", "unit": "µM"}
    ]},
    {"compound": "Fc1ccnc2c1-c1cncn1C2CCC1(F)CCCCC1", "note": "(single isomer, unassigned) [Compound 102b, 12-fluoro-7-[2-(1-fluorocyclohexyl)ethyl]-4,6,9-triazatricyclo[6.4.0.0^[2,6]]dodeca-1(8),2,4,9,11-pentaene]", "values": [
      {"measurement": "IC50", "result": "> 1", "unit": "µM"}
    ]},
    {"compound": "OCC1CCC(F)(CCC2c3c(Cl)cccc3-c3cncn32)CC1", "note": "(single isomer, unassigned) [Compound 105a, [4-[2-[6-chloro-5H-imidazo[4,3-a]isoindol-5-yl]ethyl]-4-fluorocyclohexyl]methanol]", "values": [
      {"measurement": "IC50", "result": "> 1", "unit": "µM"}
    ]},
    {"compound": "OCC1CCC(F)(CCC2c3c(Cl)cccc3-c3cncn32)CC1", "note": "(single isomer, unassigned) [Compound 105c, [4-[2-[6-chloro-5H-imidazo[4,3-a]isoindol-5-yl]ethyl]-4-fluorocyclohexyl]methanol]", "values": [
      {"measurement": "IC50", "result": "< 0.1", "unit": "µM"}
    ]},
    {"compound": "OC(CC1c2ncccc2-c2cncn21)C1(F)CCCCC1", "note": "(single isomer, unassigned) [Compound 109a, 1-(1-fluorocyclohexyl)-2-[4,6,9-triazatricyclo[6.4.0.0^[2,6]]dodeca-1(8),2,4,9,11-pentaen-7-yl]ethan-1-ol]", "values": [
      {"measurement": "IC50", "result": "> 1", "unit": "µM"}
    ]},
    {"compound": "OC(CC1c2ncccc2-c2cncn21)C1(F)CCCCC1", "note": "(single isomer, unassigned) [Compound 109c, 1-(1-fluorocyclohexyl)-2-[4,6,9-triazatricyclo[6.4.0.0^[2,6]]dodeca-1(8),2,4,9,11-pentaen-7-yl]ethan-1-ol]", "values": [
      {"measurement": "IC50", "result": "0.1 to 1", "unit": "µM"}
    ]},
    {"compound": "NC(=O)CC1CCC(F)(CCC2c3ccccc3-c3cncn32)CC1", "note": "(single isomer, unassigned) [Compound 112a, 2-[4-fluoro-4-[2-[5H-imidazo[4,3-a]isoindol-5-yl]ethyl]cyclohexyl]acetamide]", "values": [
      {"measurement": "IC50", "result": "> 1", "unit": "µM"}
    ]},
    {"compound": "NC(=O)CC1CCC(F)(CCC2c3ccccc3-c3cncn32)CC1", "note": "(single isomer, unassigned) [Compound 112b, 2-[4-fluoro-4-[2-[5H-imidazo[4,3-a]isoindol-5-yl]ethyl]cyclohexyl]acetamide]", "values": [
      {"measurement": "IC50", "result": "< 0.1", "unit": "µM"}
    ]},
    {"compound": "NC(=O)CC1CCC(F)(CCC2c3ccccc3-c3cncn32)CC1", "note": "(single isomer, unassigned) [Compound 112c, 2-[4-fluoro-4-[2-[5H-imidazo[4,3-a]isoindol-5-yl]ethyl]cyclohexyl]acetamide]", "values": [
      {"measurement": "IC50", "result": "> 1", "unit": "µM"}
    ]},
    {"compound": "NC(=O)CC1CCC(F)(CCC2c3ccccc3-c3cncn32)CC1", "note": "(single isomer, unassigned) [Compound 112d, 2-[4-fluoro-4-[2-[5H-imidazo[4,3-a]isoindol-5-yl]ethyl]cyclohexyl]acetamide]", "values": [
      {"measurement": "IC50", "result": "< 0.1", "unit": "µM"}
    ]},
    {"compound": "NC(=O)CC1CCC(F)(CCC2c3c(Cl)cccc3-c3cncn32)CC1", "note": "(single isomer, unassigned) [Compound 113a, 2-[4-[2-[6-chloro-5H-imidazo[4,3-a]isoindol-5-yl]ethyl]-4-fluorocyclohexyl]acetamide]", "values": [
      {"measurement": "IC50", "result": "< 0.1", "unit": "µM"}
    ]},
    {"compound": "NC(=O)CC1CCC(F)(CCC2c3c(Cl)cccc3-c3cncn32)CC1", "note": "(single isomer, unassigned) [Compound 113b, 2-[4-[2-[6-chloro-5H-imidazo[4,3-a]isoindol-5-yl]ethyl]-4-fluorocyclohexyl]acetamide]", "values": [
      {"measurement": "IC50", "result": "> 1", "unit": "µM"}
    ]},
    {"compound": "NC(=O)CC1CCC(F)(CCC2c3c(Cl)cccc3-c3cncn32)CC1", "note": "(single isomer, unassigned) [Compound 113c, 2-[4-[2-[6-chloro-5H-imidazo[4,3-a]isoindol-5-yl]ethyl]-4-fluorocyclohexyl]acetamide]", "values": [
      {"measurement": "IC50", "result": "> 1", "unit": "µM"}
    ]},
    {"compound": "NC(=O)CC1CCC(F)(CCC2c3c(Cl)cccc3-c3cncn32)CC1", "note": "(single isomer, unassigned) [Compound 113d, 2-[4-[2-[6-chloro-5H-imidazo[4,3-a]isoindol-5-yl]ethyl]-4-fluorocyclohexyl]acetamide]", "values": [
      {"measurement": "IC50", "result": "< 0.1", "unit": "µM"}
    ]},
    {"compound": "CN(C)C(=O)C1CCC(F)(CCC2c3c(Cl)cccc3-c3cncn32)CC1", "note": "(single isomer, unassigned) [Compound 114a, 4-[2-[6-chloro-5H-imidazo[4,3-a]isoindol-5-yl]ethyl]-4-fluoro-N,N-dimethylcyclohexane-1-carboxamide]", "values": [
      {"measurement": "IC50", "result": "< 0.1", "unit": "µM"}
    ]},
    {"compound": "CN(C)C(=O)C1CCC(F)(CCC2c3c(Cl)cccc3-c3cncn32)CC1", "note": "(single isomer, unassigned) [Compound 114b, 4-[2-[6-chloro-5H-imidazo[4,3-a]isoindol-5-yl]ethyl]-4-fluoro-N,N-dimethylcyclohexane-1-carboxamide]", "values": [
      {"measurement": "IC50", "result": "< 0.1", "unit": "µM"}
    ]}
  ]
}
